According to patent US10131652B2, “Pyrimidinyloxy benzene derivatives as herbicides” (E. I. DU PONT DE NEMOURS AND COMPANY, priority 2014, dated 2018):

What was measured:
Type in all cases: in vivo
[1] = tested on: galium (catchweed bedstraw, Galium aparine); assay: Test D pre-/postemergence plant response; conditions: Postemergence; for Plant response rating (scale 0 to 100), Galium: 16 g ai/ha; for Galium plant response rating: 31 g ai/ha, scale 0 to 100 (0 no effect, 100 complete control); for Plant response rating, Galium: scale 0 to 100, 0 no effect, 100 complete control
Summary of the method: (§1)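 Sown seed (loam/sand soil) treated preemergence; emerged plants, 1- to 4-leaf stage and 2 to 18 cm, treated postemergence in peat/vermiculite medium. Greenhouse incubation 13–15 d. Endpoint: visual 0–100 rating versus untreated.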

[2] = tested on: Italian ryegrass (Lolium multiflorum); assay: Test D pre-/postemergence plant response; conditions: Postemergence; for Plant response rating (scale 0 to 100), Ryegrass, Italian: 16 g ai/ha; for Plant response rating, Ryegrass, Italian: 125 g ai/ha
Summary of the method: as §1

[3] = tested on: winter wheat (Triticum aestivum); assay: Test D pre-/postemergence plant response; conditions: Postemergence; for Plant response rating (scale 0 to 100), Wheat: 16 g ai/ha; for Plant response rating, Wheat: 125 g ai/ha
Summary of the method: as §1

corn (Zea mays) = assay: Test D pre-/postemergence plant response; conditions: Postemergence; for Plant response rating (scale 0 to 100), Corn: 16 g ai/ha; for Corn plant response rating: 31 g ai/ha, scale 0 to 100 (0 no effect, 100 complete control); for Plant response rating, Corn: scale 0 to 100, 0 no effect, 100 complete control
Summary of the method: as §1

[4] = tested on: oilseed rape (Brassica napus); assay: Test D pre-/postemergence plant response; conditions: Postemergence; for Plant response rating (scale 0 to 100), Oilseed Rape: 16 g ai/ha; for Plant response rating, Oilseed Rape: 125 g ai/ha
Summary of the method: as §1

[5] = tested on: lambsquarters (Chenopodium album); assay: Test D pre-/postemergence plant response; conditions: Postemergence; for Plant response rating (scale 0 to 100), Lambsquarters: 16 g ai/ha; for Plant response rating, Lambsquarters: 125 g ai/ha
Summary of the method: as §1

[6] = tested on: velvetleaf (Abutilon theophrasti); assay: Test D pre-/postemergence plant response; conditions: Postemergence; for Plant response rating (scale 0 to 100), Velvetleaf: 16 g ai/ha; for Plant response rating, Velvetleaf: 125 g ai/ha
Summary of the method: as §1

kochia (Kochia scoparia) = assay: Test B pre-/postemergence plant response
Summary of the method: (§2)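 Visual injury rating, 0 (no effect) to 100 (complete control), vs untreated controls after ~10 d greenhouse. Pre: directed soil spray after planting in loam/sand. Post: plants 2–10 cm, 1–2 leaf stage. Compound in non-phytotoxic solvent plus surfactant.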

[7] = tested on: Italian ryegrass (Lolium multiflorum); assay: Test B pre-/postemergence plant response
Summary of the method: as §2

[8] = tested on: ragweed (common ragweed, Ambrosia elatior); assay: Test B pre-/postemergence plant response
Summary of the method: as §2

[9] = tested on: barnyardgrass (Echinochloa crus-galli); assay: Test C flooded paddy test plant response; conditions: Flood, 250 g ai/ha; scale of 0 to 100 where 0 is no effect and 100 is complete control; 13 to 15 days
Summary of the method: (§3)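 Greenhouse paddy assay, 13–15 days. Treatment into 3 cm floodwater over 2-leaf plants; visual 0–100 rating against controls.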

[10] = tested on: small-flower umbrella sedge (Cyperus difformis); assay: Test C flooded paddy test plant response; conditions: Flood, 250 g ai/ha; scale of 0 to 100 where 0 is no effect and 100 is complete control; 13 to 15 days
Summary of the method: as §3

[11] = tested on: ducksalad (Heteranthera limosa); assay: Test C flooded paddy test plant response; conditions: Flood, 250 g ai/ha; scale of 0 to 100 where 0 is no effect and 100 is complete control; 13 to 15 days
Summary of the method: as §3

rice (Oryza sativa) = assay: Test C flooded paddy test plant response; conditions: Flood, 250 g ai/ha; scale of 0 to 100 where 0 is no effect and 100 is complete control; 13 to 15 days
Summary of the method: as §3

[12] = 31 g ai/ha, scale 0 to 100 (0 no effect, 100 complete control)
[13] = 62 g ai/ha, scale 0 to 100, 0 no effect, 100 complete control
[14] = scale 0 to 100, 0 no effect, 100 complete control
[15] = 31 g ai/ha, Preemergence, 0 to 100 scale where 0 is no effect and 100 is complete control
[16] = 125 g ai/ha, postemergence, 0 to 100 scale, 0 no effect, 100 complete control
[17] = Postemergence, 31 g ai/ha, 0 to 100 scale (0 no effect, 100 complete control)
[18] = Preemergence, 125 g ai/ha, 0 to 100 scale (0 no effect, 100 complete control)

## FCc1cc(-c2ccccc2Oc2ncc(Cl)cn2)on1 [Compound 224]
[1]
  Plant response rating (scale 0 to 100), Galium: 40
  Galium plant response rating: 50
[1]; 62 g ai/ha
  Plant response rating, Galium: 60
[1]; 125 g ai/ha
  Plant response rating, Galium: 60
[2]
  Plant response rating (scale 0 to 100), Ryegrass, Italian: 0
[2]; [12]
  Ryegrass, Italian plant response rating: 0
[2]; [13]
  Ryegrass, Italian plant response rating: 0
[2]; [14]
  Plant response rating, Ryegrass, Italian: 0
[3]
  Plant response rating (scale 0 to 100), Wheat: 0
[3]; [12]
  Wheat plant response rating: 0
[3]; [13]
  Wheat plant response rating: 0
[3]; [14]
  Plant response rating, Wheat: 15
Corn (Zea mays)
  Plant response rating (scale 0 to 100), Corn: 0
  Corn plant response rating: 5
Corn (Zea mays); 62 g ai/ha
  Plant response rating, Corn: 5
Corn (Zea mays); 125 g ai/ha
  Plant response rating, Corn: 5
[4]
  Plant response rating (scale 0 to 100), Oilseed Rape: 0
[4]; [12]
  Oilseed Rape plant response rating: 10
[4]; [13]
  Oilseed Rape plant response rating: 50
[4]; [14]
  Plant response rating, Oilseed Rape: 98
[5]
  Plant response rating (scale 0 to 100), Lambsquarters: 55
[5]; [12]
  Lambsquarters plant response rating: 75
[5]; [13]
  Lambsquarters plant response rating: 80
[5]; [14]
  Plant response rating, Lambsquarters: 85
[6]
  Plant response rating (scale 0 to 100), Velvetleaf: 10
[6]; [12]
  Velvetleaf plant response rating: 25
[6]; [13]
  Velvetleaf plant response rating: 30
[6]; [14]
  Plant response rating, Velvetleaf: 60
Kochia (Kochia scoparia); [15]
  Plant response rating, Kochia: 60
Kochia (Kochia scoparia); [16]
  Plant response rating, Kochia: 100
Kochia (Kochia scoparia); [17]
  Plant response rating, Kochia: 70
Kochia (Kochia scoparia); [18]
  Kochia plant response rating: 90
[7]; [15]
  Plant response rating, Ryegrass, Italian: 0
[7]; [16]
  Plant response rating, Ryegrass, Italian: 0
[7]; [17]
  Plant response rating, Ryegrass, Italian: 0
[7]; [18]
  Ryegrass, Italian plant response rating: 0
[8]; [16]
  Plant response rating, Ragweed: 100
[8]; [17]
  Plant response rating, Ragweed: 50
[9]
  Barnyardgrass plant response rating: 0
[10]
  Sedge, Umbrella plant response rating: 65
[11]
  Ducksalad plant response rating: 70
Rice (Oryza sativa)
  Rice plant response rating: 0

## Fc1cccc(Oc2ncc(Cl)cn2)c1-c1cc(C(F)(F)F)no1 [Compound 228]
[1]
  Plant response rating (scale 0 to 100), Galium: 85
  Galium plant response rating: 98
[1]; 62 g ai/ha
  Plant response rating, Galium: 98
[1]; 125 g ai/ha
  Plant response rating, Galium: 100
[2]
  Plant response rating (scale 0 to 100), Ryegrass, Italian: 0
[2]; [12]
  Ryegrass, Italian plant response rating: 5
[2]; [13]
  Ryegrass, Italian plant response rating: 15
[2]; [14]
  Plant response rating, Ryegrass, Italian: 25
[3]
  Plant response rating (scale 0 to 100), Wheat: 0
[3]; [12]
  Wheat plant response rating: 5
[3]; [13]
  Wheat plant response rating: 10
[3]; [14]
  Plant response rating, Wheat: 10
Corn (Zea mays)
  Plant response rating (scale 0 to 100), Corn: 5
  Corn plant response rating: 10
Corn (Zea mays); 62 g ai/ha
  Plant response rating, Corn: 10
Corn (Zea mays); 125 g ai/ha
  Plant response rating, Corn: 10
[4]
  Plant response rating (scale 0 to 100), Oilseed Rape: 65
[4]; [12]
  Oilseed Rape plant response rating: 85
[4]; [13]
  Oilseed Rape plant response rating: 80
[4]; [14]
  Plant response rating, Oilseed Rape: 98
[5]
  Plant response rating (scale 0 to 100), Lambsquarters: 85
[5]; [12]
  Lambsquarters plant response rating: 85
[5]; [13]
  Lambsquarters plant response rating: 90
[5]; [14]
  Plant response rating, Lambsquarters: 95
[6]
  Plant response rating (scale 0 to 100), Velvetleaf: 35
[6]; [12]
  Velvetleaf plant response rating: 40
[6]; [13]
  Velvetleaf plant response rating: 65
[6]; [14]
  Plant response rating, Velvetleaf: 80
Kochia (Kochia scoparia); [15]
  Plant response rating, Kochia: 70
Kochia (Kochia scoparia); [16]
  Plant response rating, Kochia: 100
Kochia (Kochia scoparia); [17]
  Plant response rating, Kochia: 100
Kochia (Kochia scoparia); [18]
  Kochia plant response rating: 100
[7]; [15]
  Plant response rating, Ryegrass, Italian: 30
[7]; [16]
  Plant response rating, Ryegrass, Italian: 90
[7]; [17]
  Plant response rating, Ryegrass, Italian: 20
[7]; [18]
  Ryegrass, Italian plant response rating: 70
[8]; [15]
  Plant response rating, Ragweed: 0
[8]; [16]
  Plant response rating, Ragweed: 40
[8]; [17]
  Plant response rating, Ragweed: 30
[8]; [18]
  Ragweed plant response rating: 30
[9]
  Barnyardgrass plant response rating: 40
[10]
  Sedge, Umbrella plant response rating: 90
[11]
  Ducksalad plant response rating: 85
Rice (Oryza sativa)
  Rice plant response rating: 0
